Test results as given in PMC4735018, “De Novo Evolutionary Emergence of a Symmetrical Protein Is Shaped by Folding Constraints” (Cell, 2016).

Key:
AncA1B = test system: T1, AncA1B; assay: isothermal titration calorimetry; format: binding, synthetic construct; conditions: 25 °C, 20 mM Tris, 150 mM NaCl, pH 7.6; 10 µM propeller; single site model, five near-identical non-cooperative sites
T1 construct: single ancestral motif of about 47 residues, blade frame, from second ancestral library; homo-pentamer; E. coli (pET29), GlcNAc-resin purified

AncB1B = test system: T2, AncB1B; assay: isothermal titration calorimetry; format: binding, synthetic construct; conditions: 25 °C, 20 mM Tris, 150 mM NaCl, pH 7.6; 10 µM propeller; single site model, five near-identical non-cooperative sites
T2 construct: single ancestral motif of about 47 residues, blade frame, first-library variant with F23L from error-prone PCR; homo-pentamer; E. coli (pET29), GlcNAc-resin purified

## CC(=O)N[C@H]1C(O)O[C@H](CO)[C@@H](O)[C@@H]1O (some centres unmarked) [GlcNAc]
AncA1B
  binding affinity: five different parameters were measured for representative variants along the evolutionary trajectory
AncB1B
  binding affinity: The earliest evolutionary stage of single motifs was sampled using AncA1B and AncB1B
